Legend:
[1] = system: B16F10 murine melanoma cells; assay: Murine melanoma tumor model (B16F10 in C57BL/6 mice); assay type: in vivo; details: for tumor growth: FIG. 14A
Experimental: Mice were injected with 1×10^5 B16F10 murine melanoma cells murine subcutaneously on the left flank. Once tumors become palpable (approximately 5 days), mice were randomly allocated to receive treatment with either: 20% polyethylene glycol (PEG) in 5% […] (vehicle control for the disclosed HIF-2α stabilizer) and PBS (vehicle control for GM-CSF), 20% PEG and GM-CSF (100 ng per mouse in a 50 μL volume), the disclosed HIF-2α stabilizer (17.5 mg/kg in a 100 μL volume) and PBS, or the disclosed HIF-2α stabilizer and GM-CSF (same doses). The PBS and GM-CSF were administered intratumorally, while the 20% PEG and the disclosed HIF-2α stabilizer were administered intraperitoneally. Mice were treated 3 times per week until tumors reached a size of 20 mm in any dimension (approximately 2.5 weeks), at which point mice were euthanized, in accordance with institutional policy. Tumor diameters were measured 3 times per week with calipers, and tumor volumes were calculated as follows: Tumor volume=0.5×[(large diameter)×(small diameter)^2].
6-8-week-old C57BL/6 mice were injected with 1×10^5 B16F10 murine melanoma cells murine subcutaneously on the left flank. Once tumors become palpable (approximately 5 days), mice were randomly allocated to receive treatment with either: 20% PEG-400 in 5% sucrose (vehicle for disclosed HIF-2α stabilizer) and PBS (vehicle for GM-CSF), 20% PEG-400 and GM-CSF (100 ng per mouse in a 50 μL volume), disclosed HIF-2α stabilizer (17.5 mg/kg mouse weight in a 100 μL volume) and PBS, or the disclosed HIF-2α stabilizer and GM-CSF (same concentrations). The disclosed HIF-2α stabilizer (or the vehicle control) was administered intraperitoneally, while GM-CSF (or the vehicle control) was administered intratumorally. Mice were treated […] 3 times per week until tumors reached a size of 20 mm in any dimension (approximately 2.5 weeks), at which point mice were be euthanized, in accordance with institutional policy. Tumor diameters were measured 3 times per week with calipers, and tumor volumes will be calculated as follows: Tumor volume=0.5×[(large diameter)×(small diameter)^2]. For experiments analyzing the effect of neutralizing sVEGFR-1 in combination with disclosed HIF-2α stabilizer treatment, mice were treated intraperitoneally 3×/week with either disclosed HIF-2α stabilizer or vehicle control, and intratumorally with either 4 μg anti-VEGFR-1 neutralizing antibody (R&D Systems) or 4 μg polyclonal goat IgG isotype control (Santa Cruz Biotechnology) in a 50 μL volume. All protocols were approved by the Ohio State University Animal Care and Use Committee, and mice were treated in accordance with institutional guidelines for animal care.
The ANOVA test was used to compare independent measurements between multiple treatment groups. The data was log-transformed to normalize the variance across groups. P-values were adjusted using the Holm's procedure to conserve the type I error at 0.05 due to the multiple comparisons. For tumor growth data, changes in tumor volume over time were assessed via a longitudinal model. Tumor values were log-transformed, and estimated slopes (changes in tumor volume over time) were calculated with 95% confidence intervals. Estimated differences in tumor volume were calculated by a random-effects regression of the longitudinal data. For all analyses, p≦0.05 was considered statistically significant.
6-8-week-old C57BL/6 mice or SCID mice were injected with 1×10^5 B16F10 murine melanoma cells or 1×10^6 A375 human melanoma cells, respectively, subcutaneously on the left flank. […]

HIF-1α = assay: Immunoblot for HIF-1α in murine bone marrow-derived macrophages; assay type: cell-based; details: murine bone marrow-derived macrophages treated 18 hours; p=0.105; FIG. 11A
Experimental: To generate bone marrow-derived macrophages (BDMs), femoral bone marrow was isolated and progenitor cells were plated in RPMI-1640 supplemented with 10% FBS, 1% PSA, 10 μg/mL of polymyxin B, and 20 ng/mL of recombinant murine M-CSF. Cells were cultured for 5 days with the addition of fresh M-CSF every other day. Differentiated BDM were serum-starved for 2 hours and then treated with 100 ng/mL of murine GM-CSF and/or 25 μM the disclosed HIF-2α stabilizer in RPMI-1640 containing 1% FBS and 10 μg/mL polymixin B. Culture supernatants were collected after 72 hours and assayed for VEGF and sVEGFR-1 content by ELISA (R&D Systems).
In order to confirm the selective upregulation of HIF-2α by the disclosed HIF-2α stabilizer, murine bone marrow-derived macrophages were treated with the disclosed HIF-2α stabilizer for 18 hours, and cells were then lysed and immunoblotted for HIF-1α and HIF-2α.

Which results are given for `O=C(O)CNC(=O)c1ncc(-c2cccc(F)c2)cc1O` [disclosed HIF-2α stabilizer, {[5-(3-Fluorophenyl)-3-hydroxypyridine-2-carbonyl]amino} acetic acid]?
tumor growth / tumor volume ([1]; B16F10 melanoma, stabilizer 17 mg/kg I.P., GM-CSF I.T., vs PBS control, FIG. 3): reduces tumor growth; increase in median survival (time to a tumor diameter of 20 mm) ([1]; B16F10 melanoma-bearing mice, stabilizer alone, p=0.023, FIG. 12B): 3 days; average tumor volumes vs vehicle controls ([1]; day 16 of treatment, 3×/week, GM-CSF 100 ng/mouse intratumoral, stabilizer 17.5 mg/kg intraperitoneal, each p<0.001): significantly smaller; tumor growth ([1]; mice also treated with anti-sVEGFR-1 neutralizing antibody, p=0.245): no effect; tumor growth ([1]; mice treated with isotype control antibody, p<0.001): decreased tumor growth; HIF-1α protein (HIF-1α): no corresponding increase

Source: patent US20170105981A1, “METHODS FOR STABILIZING HYPOXIA INDUCIBLE FACTOR-2 ALPHA AS A METHOD FOR TREATING CANCER” (The Ohio State Innovation Foundation, priority 2011, published 2017)
